Measurements as given in the supplement of paper PMC7695840.
“And” between values parts separate entries of the source, which are not always exact repeats. Equal entries are not always repeated. Structures can show the parent of a compound that is named as a salt.

Columns and labels:
[1] = test system: Staphylococcus aureus MW2 (mecA+); assay: IC50 (growth, competition assay); settings: cefoxitin: subinhibitory
In short: (§1)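 Two fluorescent S. aureus MW2 strains, one carrying and one lacking the resistance gene, were pre-induced, mixed 1:1 and grown unshaken in LB in 1536-well plates for 20 h at 37 °C and 90% humidity with a subinhibitory drug dose set each day. Compounds were tested on five- or nine-point 2-fold gradients in two dye-swapped replicates. DsRed (540/590) and GFP (485/520) signals were scaled per plate between the medians of single-strain controls, and No Treatment was then set to 0.5. For each strain, IC50 was taken as the dose that halved the No Treatment signal, or else the maximal signal.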

[2] = test system: Staphylococcus aureus MW2 delta-mecA (mecA-); assay: IC50 (growth, competition assay); settings: cefoxitin: subinhibitory
In short: as §1

Compound	IC50 ([1]; fluorescent label: DsRed)	IC50 ([1]; fluorescent label: GFP)	IC50 ([2]; fluorescent label: DsRed)	IC50 ([2]; fluorescent label: GFP)
CO/N=C(\C(=O)N[C@@H]1C(=O)N2C(C(=O)OCOC(=O)C(C)(C)C)=C(/C=C\c3scnc3C)CS[C@H]12)c1csc(N)n1 [Cefditoren pivoxil]	16.7 µM	13.3 µM	< 0.498 µM	< 0.498 µM
CCN1CCN(C(=O)N[C@@H](C(=O)N[C@@H]2C(=O)N3C(C(=O)O)=C(CSc4nnnn4C)CS[C@H]23)c2ccc(O)cc2)C(=O)C1=O [Cefoperazone (Cefobid)]	4.66 µM	6.86 µM	< 0.498 µM	< 0.498 µM
CO/N=C(\C(=O)N[C@@H]1C(=O)N2C(C(=O)O)=C(COC(C)=O)CS[C@H]12)c1csc(N)n1 [Cefotaxime sodium]	< 9.85 µM	< 9.85 µM	< 9.85 µM	< 9.85 µM
CO/N=C(\C(=O)N[C@@H]1C(=O)N2C(C(=O)O)=C(CSc3nc(=O)c(O)nn3C)CS[C@H]12)c1csc(N)n1 [Ceftriaxone sodium]	14.9 µM	14.9 µM	< 9.85 µM	< 9.85 µM
CC1=C(O)C(=O)C=C2C1=CC=C1[C@@]2(C)CC[C@@]2(C)[C@@H]3C[C@](C)(C(=O)O)CC[C@]3(C)CC[C@]12C [Celastrol]	1.67 µM	1.73 µM	< 0.498 µM	< 0.498 µM
Cc1ccc(-c2cc(C(F)(F)F)nn2-c2ccc(S(N)(=O)=O)cc2)cc1 [Celecoxib]	114 µM and 112 µM	112 µM and 95.4 µM	8.58 µM and 20.1 µM	9.91 µM and 18.2 µM
CC(=O)OCC1=C(C(=O)O)N2C(=O)[C@@H](NC(=O)Cc3cccs3)[C@H]2SC1 [Cephalothin sodium]	< 9.85 µM	< 9.85 µM	< 9.85 µM	< 9.85 µM
Cc1cc(Nc2ncc(Cl)c(Nc3ccccc3S(=O)(=O)C(C)C)n2)c(OC(C)C)cc1C1CCNCC1 [Ceritinib (LDK378)]	29 µM	27.7 µM	< 9.85 µM	< 9.85 µM
COc1ccc2c(c[n+](C)c3c4cc5c(cc4ccc23)OCO5)c1OC [Chelerythrine chloride]	36.7 µM	49.2 µM	15 µM	< 9.85 µM
C[C@H](CCC(=O)O)[C@H]1CC[C@H]2[C@@H]3[C@H](O)C[C@@H]4C[C@H](O)CC[C@]4(C)[C@H]3CC[C@]12C [Chenodeoxycholic acid]	54 µM	91.4 µM	14.8 µM	7.91 µM
Cc1cc(C2CCCCC2)n(O)c(=O)c1 [Ciclopirox (Penlac)]	19 µM	30.1 µM	29.7 µM	29.5 µM
Cc1cc(C2CCCCC2)n(O)c(=O)c1 [Ciclopirox ethanolamine]	24.5 µM and 49.9 µM	29.7 µM and 60.7 µM	28.3 µM and 61.2 µM	29.8 µM and 57.2 µM
CC(C)(Oc1ccc(C2CC2(Cl)Cl)cc1)C(=O)O (configuration not stated) [Ciprofibrate]	93.1 µM	107 µM	21.6 µM	30.6 µM
O=C(O)c1cn(C2CC2)c2cc(N3CCNCC3)c(F)cc2c1=O [Ciprofloxacin (Cipro)]	3.52 µM	3.52 µM	0.863 µM	1.17 µM
CCCCCCCCCCCCCCCC(=O)O[C@@H]1[C@@H](O)[C@@H](O)[C@@H]([C@H](NC(=O)[C@@H]2C[C@@H](CCC)CN2C)[C@H](C)Cl)O[C@@H]1SC [Clindamycin palmitate HCl]	< 9.85 µM	< 9.85 µM	< 9.85 µM	< 9.85 µM
CCN(CC)CCOc1ccc(C(=C(Cl)c2ccccc2)c2ccccc2)cc1 [Clomifene citrate (Serophene)]	15 µM	14.9 µM	< 9.85 µM	< 9.85 µM
Clc1ccccc1C(c1ccccc1)(c1ccccc1)n1ccnc1 [Clotrimazole]	16.1 µM	15.8 µM	< 9.85 µM	< 9.85 µM
Cc1onc(-c2ccccc2Cl)c1C(=O)N[C@@H]1C(=O)N2[C@@H]1SC(C)(C)[C@@H]2C(=O)O [Cloxacillin sodium]	< 9.85 µM	< 9.85 µM	< 9.85 µM	< 9.85 µM
CC(C)c1nc(CN(C)C(=O)N[C@@H](CCN2CCOCC2)C(=O)N[C@H](CC[C@H](Cc2ccccc2)NC(=O)OCc2cncs2)Cc2ccccc2)cs1 [Cobicistat (GS-9350)]	109 µM	107 µM	29.4 µM	27.6 µM
C[C@H]1COC2=C1C(=O)C(=O)c1c2ccc2c1CCCC2(C)C [Cryptotanshinone]	12.1 µM	19.2 µM	< 9.85 µM	< 9.85 µM
CN(C)c1ccc(C(=C2C=CC(=[N+](C)C)C=C2)c2ccc(N(C)C)cc2)cc1 [Crystal violet]	0.691 µM	0.758 µM	< 0.498 µM	< 0.498 µM
COc1cc(/C=C/C(=O)CC(=O)/C=C/c2ccc(O)c(OC)c2)ccc1O [Curcumin]	34.7 µM	53.8 µM	4.13 µM	3.73 µM
Cc1cc(NC2CCCCC2)nc(-n2nc(C)cc2C)n1 [CyPPA]	40 µM	107 µM	18.6 µM	16.9 µM
CN(C)[C@@H]1C(O)=C(C(N)=O)C(=O)[C@@]2(O)C(O)=C3C(=O)c4c(O)ccc(Cl)c4[C@@H](O)[C@H]3C[C@@H]12 [DECLOMYCIN]	< 9.85 µM	< 9.85 µM	< 9.85 µM	< 9.85 µM
Cc1cc(C(C)(C)CC(C)(C)C)ccc1OCCOCC[N+](C)(C)Cc1ccccc1 [DELAVAN]	< 9.85 µM	< 9.85 µM	< 9.85 µM	< 9.85 µM
CCc1oc2ccccc2c1C(=O)c1cc(Br)c(O)c(Br)c1 [DESURIC]	< 9.85 µM	< 9.85 µM	< 9.85 µM	< 9.85 µM
COc1ccc(Cc2cnc(N)nc2N)cc1OC [DIAVERIDINE]	57.3 µM	29.9 µM	27.4 µM	26.7 µM
Oc1ccc(Cl)cc1Cc1cc(Cl)ccc1O [DICHLOROPHEN]	< 9.85 µM	< 9.85 µM	< 9.85 µM	< 9.85 µM
